{
  "source": "ChEMBL document CHEMBL1123943",
  "about": "“Biologically active dihydrodiol metabolites of polycyclic aromatic hydrocarbons structurally related to the potent carcinogenic hydrocarbon 7,12-dimethylbenz[a]anthracene” (1988)",
  "format_in_all_cases": "functional",
  "key": {"[1]": {"organism": "Mus musculus", "assay": "Tumor initiating activity measured as number of papillomas on mouse skin at a dose of 100 nmol"}, "[2]": {"organism": "Mus musculus", "assay": "Tumor initiating activity measured as percentage of mice with papillomas at a dose of 100 nmol"}, "[3]": {"organism": "Mus musculus", "assay": "Tumor initiating activity measured as number of papillomas on mouse skin at a dose of 50 nmol"}, "[4]": {"organism": "Mus musculus", "assay": "Tumor initiating activity measured as percentage of mice with papillomas at a dose of 50 nmol"}, "[5]": {"test_system": "Rattus norvegicus", "assay": "Tumor initiating activity measured as incidence of % aberrent cells with chromosomal aberrations, at given dose of 50 mg/kg"}, "[6]": {"test_system": "Rattus norvegicus", "assay": "Tumor initiating activity measured as number of chromosomal aberrations per cell, at a dose of 25 mg/kg"}, "[7]": {"test_system": "Rattus norvegicus", "assay": "Tumor initiating activity measured as incidence of % aberrent cells with chromosomal aberrations, at given dose of 25 mg/kg"}, "[8]": {"test_system": "Rattus norvegicus", "assay": "Tumor initiating activity measured as number of chromosomal aberrations per cell, at given dose 50 mg/kg"}, "[9]": {"test_system": "Rattus norvegicus", "assay": "Tumor initiating activity measured as number of chromosomal aberrations per cell, at a dose of 50 mg/kg"}, "[10]": {"organism": "Mus musculus", "assay": "Tumor initiating activity measured as percentage of mice with papillomas at a dose of 200 nmol"}, "[11]": {"organism": "Mus musculus", "assay": "Tumor initiating activity measured as number of papillomas on mouse skin at a dose of 200 nmol"}},
  "data": [
    {"compound": "Cc1ccc2cc3c(ccc4c(O)c(O)ccc43)c3c2c1CC3", "values": [
      {"measurement": "papillomas per mouse", "setting": "[1]", "result": 7.7, "unit": "papillomas/mouse"},
      {"measurement": "Activity", "setting": "[2]", "result": 100, "unit": "%"}
    ]},
    {"compound": "Cc1c2cccc3c2c(c2ccc4ccccc4c12)CC3", "values": [
      {"measurement": "papillomas per mouse", "setting": "[3]", "result": 14.7, "unit": "papillomas/mouse"},
      {"measurement": "Activity", "setting": "[4]", "result": 100, "unit": "%"}
    ]},
    {"compound": "Cc1c2ccccc2c(C)c2c1ccc1c(O)c(O)ccc12", "values": [
      {"measurement": "Activity", "setting": "[5]", "result": 53, "unit": "%"},
      {"measurement": "aberrations per cell", "setting": "[6]", "result": 0.31, "unit": "aberrations/cell"},
      {"measurement": "Activity", "setting": "[7]", "result": 22.2, "unit": "%"},
      {"measurement": "aberrations per cell", "setting": "[8]", "result": 1.44, "unit": "aberrations/cell"}
    ]},
    {"compound": "Cc1c2cccc3c2c(c2ccc4c(O)c(O)ccc4c12)CC3", "values": [
      {"measurement": "papillomas per mouse", "setting": "[3]", "result": 16.5, "unit": "papillomas/mouse"},
      {"measurement": "Activity", "setting": "[4]", "result": 100, "unit": "%"}
    ]},
    {"compound": "Oc1ccc2c(ccc3cc4ccccc4cc32)c1O", "values": [
      {"measurement": "aberrations per cell", "setting": "[9]", "result": 0.02, "unit": "aberrations/cell"},
      {"measurement": "Activity", "setting": "[5]", "result": 2.2, "unit": "%"}
    ]},
    {"compound": "Oc1ccc2c(ccc3c4c5c(cccc5cc32)CC4)c1O", "values": [
      {"measurement": "Activity", "setting": "[10]", "result": 80, "unit": "%"},
      {"measurement": "papillomas per mouse", "setting": "[11]", "result": 3.32, "unit": "papillomas/mouse"}
    ]},
    {"compound": "Cc1c2ccccc2cc2ccc3c(O)c(O)ccc3c12", "values": [
      {"measurement": "aberrations per cell", "setting": "[6]", "result": 0.17, "unit": "aberrations/cell"},
      {"measurement": "Activity", "setting": "[7]", "result": 12.8, "unit": "%"}
    ]},
    {"compound": "Cc1c2ccccc2cc2c1ccc1c(O)c(O)ccc12", "values": [
      {"measurement": "aberrations per cell", "setting": "[9]", "result": 0.07, "unit": "aberrations/cell"},
      {"measurement": "Activity", "setting": "[5]", "result": 6.6, "unit": "%"}
    ]},
    {"compound": "Cc1ccc2cc3c(ccc4ccccc43)c3c2c1CC3", "note": "[3-METHYLCHOLANTHRENE]", "values": [
      {"measurement": "papillomas per mouse", "setting": "[1]", "result": 7.13, "unit": "papillomas/mouse"},
      {"measurement": "Activity", "setting": "[2]", "result": 97, "unit": "%"}
    ]},
    {"compound": "c1cc2c3c(c4ccc5ccccc5c4cc3c1)CC2", "note": "[CHOLANTHRENE]", "values": [
      {"measurement": "Activity", "setting": "[10]", "result": 93, "unit": "%"},
      {"measurement": "papillomas per mouse", "setting": "[11]", "result": 6.9, "unit": "papillomas/mouse"}
    ]}
  ]
}
